Assay results reported in the supplement of paper PMC3974653.
Structures can show the parent of a compound that is named as a salt.

Test system: MTT (mouse pheochromocytoma)
Assay: IC50 of cell viability (ATP content)
Settings: (24 or 48 h)
Procedure, shortened: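 MTT mouse pheochromocytoma cells were seeded into white 1536-well plates at 5 µl per well from a 200,000 cells/ml suspension in DMEM with 5% FBS and 1% horse serum, then cultured overnight at 37°C, 5% CO2. A pintool added 23 nl of library compound in DMSO at 8 concentrations (final 0.5 nM to 46 µM) for 24 or 48 hrs, and CellTiter-Glo ATP luminescence was read after 15 minutes. Signals were scaled so that positive-control wells equalled 100% and DMSO wells 0%. IC50 values were derived by fitting a four-parameter logistic curve.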

| SMILES | IC50 of cell viability [µM] |
| --- | --- |
| CN/C(=C\[N+](=O)[O-])NCCSCc1ccc(CN(C)C)o1 [RANITIDINE] | > 46 |
| COc1ccccc1OCC(O)CN1CCN(CC(=O)Nc2c(C)cccc2C)CC1 (stereo unspecified) [RANOLAZINE] | > 46 |
| C=CC[N+]1([C@H]2C[C@H]3[C@@H]4CC[C@H]5C[C@H](OC(C)=O)[C@@H](N6CCCCC6)C[C@]5(C)[C@H]4CC[C@]3(C)[C@H]2OC(=O)CC)CCCCC1 [RAPACURONIUM BROMIDE] | > 46 |
| C#CCN[C@@H]1CCc2ccccc21 [RASAGILINE MESYLATE] | > 46 |
| COC(=O)[C@H]1[C@H]2C[C@H]3c4[nH]c5ccccc5c4CCN3C[C@H]2CC[C@@H]1O [RAUWOLSCINE] | > 46 |
| OC(=O)C(CC/1=C/C(=O)NC2=CC=CC=C12)NC(=O)C3=CC=C(Cl)C=C3 (stereo unspecified) [REBAMIPIDE] | > 46 |
| COc1ccc([S+](=O)([O-])N2c3ccc(Cl)cc3[C@](O)(c3ccccc3Cl)[C@@H]2C(=O)N2CCC[C@H]2C(N)=O)cc1OC [RELCOVAPTANUM] | > 46 |
| CCN1CCC[C@H]1CNC(=O)c1c(OC)ccc(Br)c1OC [REMOXIPRIDE] | > 46 |
| CC(C)Cc1ccc([C@@H](C)C(=O)NS(C)(=O)=O)cc1.NCCCC[C@H](N)C(=O)O [REPARIXIN] | > 46 |
| CC(=O)Oc1cccc(O)c1 [RESORCINOL MONOACETATE] | > 46 |
| NC(=O)c1ncn(C2OC(CO)C(O)C2O)n1 (stereo unspecified) [RIBAVIRIN] | > 46 |
| COC1/C=C/O[C@@]2(C)Oc3c(C)c(O)c4c(O)c(c(C=NN5CCN(C)CC5)c(O)c4c3C2=O)NC(=O)C(C)=C/C=C/C(C)C(O)[C@@H](C)C(O)C(C)[C@H](OC(C)=O)C1C (stereo partly specified) [RIFAMPIN] | > 46 |
| CO[C@H]1/C=C/O[C@@]2(C)Oc3c(C)c(O)c4c(O)c(c(/C=N\N5CCN(C6CCCC6)CC5)c(O)c4c3C2=O)NC(=O)C(C)=C/C=C/[C@H](C)[C@H](O)[C@@H](C)[C@@H](O)[C@@H](C)[C@H](OC(C)=O)[C@@H]1C [RIFAPENTINE] | > 46 |
| C1C\N=C(\NC(C2CC2)C3CC3)O1 [RILMENIDINE] | > 46 |
| CC/1=C(\CCN2CCC(CC2)C3=NOC4=C3C=CC(=C4)F)C(=O)N/5CCCCC5=N1 [RISPERIDONE] | > 46 |
| CCN(C)C(=O)Oc1cccc([C@H](C)N(C)C)c1 [RIVASTIGMINE TARTRATE] | > 46 |
| CN(C)CCc1c[nH]c2ccc(Cn3cncn3)cc12 [RIZATRIPTAN] | > 46 |
| N=C(N/N=C/c1ccc(Cl)cc1)N/N=C/c1ccc(Cl)cc1 [ROBENIDINE HYDROCHLORIDE] | > 46 |
| C=CC[N+]1([C@H]2C[C@H]3[C@@H]4CC[C@H]5C[C@H](O)[C@@H](N6CCOCC6)C[C@]5(C)[C@H]4CC[C@]3(C)[C@H]2OC(C)=O)CCCC1 [ROCURONIUM BROMIDE] | > 46 |
| C[S+]([O-])(=O)C1=CC=C(C=C1)C/2=C(/C(=O)OC2)C3=CC=CC=C3 [ROFECOXIB] | > 46 |
| O=C1CC[C@H](C(=O)N[C@@H]2C[C@H]2c2ccccc2)N1 [ROLICYPRINUM] | > 46 |
| Cn1c([N+](=O)[O-])cnc1COC(N)=O [RONIDAZOLE] | > 46 |
| CCCN(CCC)CCc1cccc2c1CC(=O)N2 [ROPINROLE] | > 46 |
| CCCN1CCCC[C@H]1C(=O)Nc1c(C)cccc1C [ROPIVACAINE HYDROCHLORIDE MONOHYDRATE] | > 46 |
| CCC1OC(=O)C[C@@H](O)[C@H](C)[C@@H](OC2OC(C)CC(N(C)C)C2O)[C@@H](CC=O)C[C@@H](C)C(=O)/C=C/[C@]2(C)OC2C1C (stereo partly specified) [ROSAMICIN] | > 46 |
| CN(CCOc1ccc(CC2SC(=O)NC2=O)cc1)c1ccccn1 (stereo unspecified) [ROSIGLITAZONE] | > 46 |
